Experimental data as given in patent US20150225762A1, “SAME-DAY BLOOD CULTURE WITH DIGITAL MICROSCOPY” (ACCELERATE DIAGNOSTICS, INC., priority 2012, published 2015).

What was measured:
Ecol 35218 [1] = experiment: FISH detection of live and killed bacteria with or without protease digestion; assay type: cell-based, E. coli
Saur 12600 [2] = experiment: as above; assay type: cell-based, S. aureus
Saur 12600 [3] = experiment: Plate count of live bacteria after killing treatment; assay type: cell-based, S. aureus
Paer 27853 [4] = experiment: as above; assay type: cell-based, P. aeruginosa
Kpne 13882 [5] = experiment: as above
Kpne 13882 [6] = experiment: FISH detection of live and killed bacteria with or without protease digestion; assay type: cell-based, K. pneumoniae
Paer 27853 [7] = experiment: as above; assay type: cell-based, P. aeruginosa
Ecol 35218 [8] = experiment: Plate count of live bacteria after killing treatment; assay type: cell-based, E. coli
E. coli = experiment: Protease-dependent bacterial growth inhibition in rapid blood culture (plating); assay type: cell-based; conditions: for Overall rate / Fold Growth: 6 hour run; for Fold Growth: over starting number
Description: Blood culture samples were treated with two different concentrations of protease to determine if protease used at a high concentration could produce inhibition of bacterial growth. Identification of a protease concentration dependent inhibitory effect on the growth rate of microbial cells is an important component of optimization of a rapid blood culture method. Growth of E. coli in simulated bacteremic blood cultures treated with a working protease concentration (0.2 mg/mL) and high protease concentration (20 mg/mL) was compared over a six (6) hour growth and digestion period.
A mock blood culture specimen was created by addition of 10 mL of blood to a BioMerieux BacT/Alert Standard Aerobic bottle. A 1.0 mL portion of this specimen was used for each condition. Each sample was treated with saponin to a final concentration of 4 mg/mL and SPS to a final concentration of 0.96 mg/mL. Samples were then spiked with E. coli bacteria to a final concentration of 1×10^2 cfu/mL. The samples were treated with a Pronase solution containing either 0.2 mg/mL or 20 mg/mL. Samples were incubated at 35° C. with agitation for 6 hours. A portion of each sample was removed for concentration determination at 2 hour time points during the incubation. The sampled bacteria were plated in 10-fold dilution series to determine the concentration of bacteria at each time point. Interval-by-interval growth rates, overall growth rate, and fold increase versus the starting concentration were determined using the calculated concentrations at each time point.

[9] = 1 hour, with protease (0.2 mg/mL Pronase)
[10] = 1 hour, with protease (0.2 mg/mL Pronase), cells live or pre-killed as labelled
[11] = 4 hour, with protease (0.2 mg/mL Pronase)
[12] = 4 hour, with protease (0.2 mg/mL Pronase), cells live or pre-killed as labelled
[13] = 0 hr, after gentamycin 100 micrograms per mL 1 hour or 80% ethanol
[14] = gentamycin 1 hour or 80% ethanol
[15] = High protease (20 mg/mL Pronase)
[16] = Low protease (0.2 mg/mL Pronase)

For `CCO` [Ethanol, ethanol], the “FISH Conc” value (Ecol 35218 [1]; 1 hour, no protease) was 4.3 × 10^4 cells/mL, the “Positive Detection?” value (Ecol 35218 [1]; 1 hour, no protease) was “Yes (A detection threshold of 1×10^4 cells per mL was used as the threshold for a positive call in the FISH assay)” and the “Positive Detection?” value (Ecol 35218 [1]; [9]) was “No (A detection threshold of 1×10^4 cells per mL was used as the threshold for a positive call in the FISH assay)”. For the same compound, the “FISH Conc” value (Ecol 35218 [1]; [10]) was 3.3 × 10^3 cells/mL, the “FISH Conc” value (Ecol 35218 [1]; 4 hour, no protease) was 3.7 × 10^4 cells/mL and the “Positive Detection?” value (Ecol 35218 [1]; 4 hour, no protease) was “Yes (A detection threshold of 1×10^4 cells per mL was used as the threshold for a positive call in the FISH assay)”. The “Positive Detection?” value (Ecol 35218 [1]; [11]) was “No (A detection threshold of 1×10^4 cells per mL was used as the threshold for a positive call in the FISH assay)”, the “FISH Conc” value (Ecol 35218 [1]; [12]) was 6.7 × 10^3 cells/mL and the “FISH Conc” value (Saur 12600 [2]; 1 hour, no protease) was 3.4 × 10^5 cells/mL. For the same compound, the “Positive Detection?” value (Saur 12600 [2]; 1 hour, no protease) was “Yes (A detection threshold of 1×10^4 cells per mL was used as the threshold for a positive call in the FISH assay)”, the “Positive Detection?” value (Saur 12600 [2]; [9]) was “Yes (A detection threshold of 1×10^4 cells per mL was used as the threshold for a positive call in the FISH assay)” and the “FISH Conc” value (Saur 12600 [2]; [10]) was 2.5 × 10^5 cells/mL. For the same compound, the “FISH Conc” value (Saur 12600 [2]; 4 hour, no protease) was 1.9 × 10^5 cells/mL, the “Positive Detection?” value (Saur 12600 [2]; 4 hour, no protease) was “Yes (A detection threshold of 1×10^4 cells per mL was used as the threshold for a positive call in the FISH assay)” and the “Positive Detection?” value (Saur 12600 [2]; [11]) was “Yes (A detection threshold of 1×10^4 cells per mL was used as the threshold for a positive call in the FISH assay)”. For the same compound, the “FISH Conc” value (Saur 12600 [2]; [12]) was 1.2 × 10^5 cells/mL, the “Conc of live bacteria by plating” value (Saur 12600 [3]; [13]) was <10 cfu/mL and the “Killing by plating, in words” value (Saur 12600 [3]; [14]) was “no viable cells”. For the same compound, the “Conc of live bacteria by plating” value (Paer 27853 [4]; [13]) was <10 cfu/mL, the “Killing by plating, in words” value (Paer 27853 [4]; [14]) was “no viable cells” and the “Conc of live bacteria by plating” value (Kpne 13882 [5]; [13]) was <10 cfu/mL. The “Killing by plating, in words” value (Kpne 13882 [5]; [14]) was “no viable cells”, the “FISH Conc” value (Kpne 13882 [6]; 1 hour, no protease) was 4.9 × 10^5 cells/mL and the “Positive Detection?” value (Kpne 13882 [6]; 1 hour, no protease) was “Yes (A detection threshold of 1×10^4 cells per mL was used as the threshold for a positive call in the FISH assay)”. The “Positive Detection?” value (Kpne 13882 [6]; [9]) was “Yes (A detection threshold of 1×10^4 cells per mL was used as the threshold for a positive call in the FISH assay)”, the “FISH Conc” value (Kpne 13882 [6]; [10]) was 6.8 × 10^5 cells/mL and the “FISH Conc” value (Kpne 13882 [6]; 4 hour, no protease) was 4.1 × 10^5 cells/mL. For the same compound, the “Positive Detection?” value (Kpne 13882 [6]; 4 hour, no protease) was “Yes (A detection threshold of 1×10^4 cells per mL was used as the threshold for a positive call in the FISH assay)”, the “Positive Detection?” value (Kpne 13882 [6]; [11]) was “Yes (A detection threshold of 1×10^4 cells per mL was used as the threshold for a positive call in the FISH assay)” and the “FISH Conc” value (Kpne 13882 [6]; [12]) was 2.8 × 10^5 cells/mL. For the same compound, the “FISH Conc” value (Paer 27853 [7]; 1 hour, no protease) was 3.0 × 10^5 cells/mL, the “Positive Detection?” value (Paer 27853 [7]; 1 hour, no protease) was “Yes (A detection threshold of 1×10^4 cells per mL was used as the threshold for a positive call in the FISH assay)” and the “Positive Detection?” value (Paer 27853 [7]; [9]) was “No (A detection threshold of 1×10^4 cells per mL was used as the threshold for a positive call in the FISH assay)”. The “FISH Conc” value (Paer 27853 [7]; [10]) was 6.7 × 10^3 cells/mL, the “FISH Conc” value (Paer 27853 [7]; 4 hour, no protease) was 1.3 × 10^5 cells/mL and the “Positive Detection?” value (Paer 27853 [7]; 4 hour, no protease) was “Yes (A detection threshold of 1×10^4 cells per mL was used as the threshold for a positive call in the FISH assay)”. For the same compound, the “Positive Detection?” value (Paer 27853 [7]; [11]) was “No (A detection threshold of 1×10^4 cells per mL was used as the threshold for a positive call in the FISH assay)”, the “FISH Conc” value (Paer 27853 [7]; [12]) was <1 × 10^3 cells/mL and the “Conc of live bacteria by plating” value (Ecol 35218 [8]; [13]) was <10 cfu/mL. The “Killing by plating, in words” value (Ecol 35218 [8]; [14]) was “no viable cells”.
Pronase [Protease] was tested, and the “Positive Detection?” value (Ecol 35218 [1]; [9]) was “Yes (A detection threshold of 1×10^4 cells per mL was used as the threshold for a positive call in the FISH assay)”, the “FISH Conc” value (Ecol 35218 [1]; [10]) was 2.3 × 10^6 cells/mL and the “Positive Detection?” value (Ecol 35218 [1]; [11]) was “Yes (A detection threshold of 1×10^4 cells per mL was used as the threshold for a positive call in the FISH assay)”. For the same compound, the “FISH Conc” value (Ecol 35218 [1]; [12]) was 1.8 × 10^7 cells/mL, the “Positive Detection?” value (Saur 12600 [2]; [9]) was “Yes (A detection threshold of 1×10^4 cells per mL was used as the threshold for a positive call in the FISH assay)” and the “FISH Conc” value (Saur 12600 [2]; [10]) was 1.6 × 10^6 cells/mL. The “Positive Detection?” value (Saur 12600 [2]; [11]) was “Yes (A detection threshold of 1×10^4 cells per mL was used as the threshold for a positive call in the FISH assay)”, the “FISH Conc” value (Saur 12600 [2]; [12]) was 4.2 × 10^7 cells/mL and the “Positive Detection?” value (Kpne 13882 [6]; [9]) was “Yes (A detection threshold of 1×10^4 cells per mL was used as the threshold for a positive call in the FISH assay)”. For the same compound, the “FISH Conc” value (Kpne 13882 [6]; [10]) was 7.7 × 10^4 cells/mL, the “Positive Detection?” value (Kpne 13882 [6]; [11]) was “Yes (A detection threshold of 1×10^4 cells per mL was used as the threshold for a positive call in the FISH assay)” and the “FISH Conc” value (Kpne 13882 [6]; [12]) was 4.3 × 10^6 cells/mL. The “Positive Detection?” value (Paer 27853 [7]; [9]) was “Yes (A detection threshold of 1×10^4 cells per mL was used as the threshold for a positive call in the FISH assay)”, the “FISH Conc” value (Paer 27853 [7]; [10]) was 9.0 × 10^4 cells/mL and the “Positive Detection?” value (Paer 27853 [7]; [11]) was “Yes (A detection threshold of 1×10^4 cells per mL was used as the threshold for a positive call in the FISH assay)”. For the same compound, the “FISH Conc” value (Paer 27853 [7]; [12]) was 5.9 × 10^6 cells/mL, the “lower overall increase with the higher concentration of protease” value (E. coli; 20 mg/mL versus 0.2 mg/mL, 6 hour incubation) was “approximately 8.5 fold” and the “Calculated growth rate 0→2 Hours” value (E. coli; [15]) was 0.70. For the same compound, the “Calculated growth rate 2→4 Hours” value (E. coli; [15]) was 2.74, the “Calculated growth rate 4→6 Hours” value (E. coli; [15]) was 2.22 and the Conc of bacteria (E. coli; High protease (20 mg/mL Pronase), 2 hr) was 2.7 × 10^2 cfu/mL. For the same compound, the Conc of bacteria (E. coli; High protease (20 mg/mL Pronase), 4 hr) was 1.2 × 10^4 cfu/mL, the Overall rate (E. coli; [15]) was 1.89 and the Conc of bacteria (E. coli; High protease (20 mg/mL Pronase), 6 hr) was 2.6 × 10^5 cfu/mL. The “Fold Growth” value (E. coli; [15]) was 2,600, the “Calculated growth rate 0→2 Hours” value (E. coli; [16]) was 0.60 and the “Calculated growth rate 2→4 Hours” value (E. coli; [16]) was 2.96. The “Calculated growth rate 4→6 Hours” value (E. coli; [16]) was 3.65, the Conc of bacteria (E. coli; Low protease (0.2 mg/mL Pronase), 2 hr) was 2.3 × 10^2 cfu/mL and the Conc of bacteria (E. coli; Low protease (0.2 mg/mL Pronase), 4 hr) was 1.4 × 10^4 cfu/mL. For the same compound, the Overall rate (E. coli; [16]) was 2.40, the Conc of bacteria (E. coli; Low protease (0.2 mg/mL Pronase), 6 hr) was 2.2 × 10^6 cfu/mL and the “Fold Growth” value (E. coli; [16]) was 22,000.
